Key:
SC tissue = test: SC toxicity at the injection site (Example 10)
Experimental: The same studies were carried out with a polymer according to the invention coupled with Cyanine 5.5.

[1] = Pharmacokinetics and biodistribution of radiolabelled PTX; settings: mice, liver, kidneys, spleen, lungs; radiolabel
Experimental: 7 week old female BALB/c OlaHsd mice (˜22 g; Envigo, France) were used. […] Each group consisted of 40 mice divided into 10 different times (0.25 h, 0.5 h, 1 h, 2 h, 4 h, 7 h, 24 h, 48 h, 96 h and 144 h) leading to 4 mice per group. […] Livers, kidneys, spleens, lungs and some SC tissue at the injection site were also collected. All the samples were stored in a freezer (−20° C.) for a maximum of one week before analysis. For the radioactivity count, approximately 100 μl of plasma and 100 mg of each organ/tissue were removed and weighed with precision. The organs were first dissolved by adding 1 ml of soluble solution (PerkinElmer, USA) and the samples were placed overnight in an oven at 60° C. They were then whitewashed by twice adding 100 μL of 30% H2O2 (weight/volume) and heated for 30 min at 60° C. in an oven. Finally, the treated plasma and organ samples were mixed with Hionic-FluorUltimagold (PerkinElmer, USA) and the radioactivity was measured with a versatile LS 6500 scintillation counter (Beckman Coulter).
Pharmacokinetic and biodistribution studies were also conducted for the polyacrylamide compound containing paclitaxel. Paclitaxel was radiolabelled and coupled to the polymer by an ester link (stable link) so that it could be followed in the blood and in various organs (liver, lungs, kidneys, spleen, SC tissue). […]

| Molecule | Toxicity at the injection site (SC tissue; SC administration at 30 mg/kg (paclitaxel equivalent) once a day for 4 days, FIG. 12) | Elimination (biodistribution) [1] | SC toxicity (necrosis of SC tissue) (SC tissue; in vivo, sc, 0.8 mg/kg) |
| --- | --- | --- | --- |
| CC(=O)O[C@H]1C(=O)[C@@]2(C)[C@H]([C@H](OC(=O)c3ccccc3)[C@]3(O)C[C@H](OC(=O)[C@H](O)[C@@H](NC(=O)c4ccccc4)c4ccccc4)C(C)=C1C3(C)C)[C@]1(OC(C)=O)CO[C@@H]1C[C@@H]2O [paclitaxel] | local toxicity effects | predominantly hepatic elimination | – |
| Cyanine 5.5 | – | – | very necrotizing for SC tissue |

— US12150996B2, “Polymeric prodrugs and subcutaneous and/or intramuscular administration thereof” (priority 2017, dated 2024)
